Article PMC10222839, “Development of Novel Small-Molecule Activators of Pyruvate Kinase Muscle Isozyme 2, PKM2, to Reduce Photoreceptor Apoptosis” (Pharmaceuticals, 2023)
≈ marks a conversion by molar mass, not a printed value.

Experiments:
human recombinant PKM2 = target: T1, human recombinant PKM2 (Homo sapiens, UniProt P14618); experiment: Pyruvate kinase enzyme-coupled (LDH/NADH) assay with recombinant PKM2; assay type: biochemical; conditions: for AC50: recombinant human PKM2, n = 3, best-fit value ± std. error; for Emax: recombinant human PKM2, n = 3, normalized to DMSO-treated enzyme, read-out: Recombinant PKM2 Max Activation
T1 construct: purchased Sigma SAE0021
Procedure: (§1) Recombinant Enzyme. An enzyme-coupled assay that measures the depletion of NADH via absorbance at 340 nm and uses lactate dehydrogenase (LDH) was employed to determine the activity of pyruvate kinase (PK). To determine the AC50 (concentration of activator necessary to achieve half-maximal activation) of the different small molecules with PKM2, assays were conducted in a 96-well format using 200 μL/well assay volume with 10 nM human recombinant PKM2 (Sigma, St. Louis, MO, USA, Cat No. SAE0021) or PKM1 (Sigma, […], Cat No. SRP0415), differing concentrations of activator, 0.5 mM PEP, 1 mM ADP, 0.2 mM NADH, and 8 U of LDH in a buffer of 50 mM Tris-HCl (pH 7.4), 100 mM KCl, and 5 mM MgCl2 as previously described. A SPECTROstar Omega plate reader (BMG LABTECH Inc., Cary, NC, USA) monitored absorbance at 340 nm. The MARS software suite was utilized to determine initial velocities. Data were normalized to DMSO (dimethyl sulfoxide)-treated enzyme activity, as previously described.

[1] = target: T2, pyruvate kinase (PK) activity in 661W cells (Mus musculus, UniProt P52480); experiment: PK activity in 661W cell lysates after 2 h incubation with activator; assay type: cell-based; conditions: for AC50: n = 3; for Emax: n = 3, read-out: 661W Cells Max Activation
T2 construct: endogenous in cells; host or cells: 661W photoreceptor-like cells
Procedure: The potency and efficacy of each compound, 1 through 5, was assessed with recombinant human PKM2 using an enzyme-coupled assay that uses lactate dehydrogenase and measures the reduction in NADH via absorbance at 340 nm. […] To assess the ability of this pyridazinoindolone series of compounds to cross cellular membranes and increase PK activity, we utilized 661W cells, which are immortalized photoreceptor-like cells that express cone markers.
Cell culture. Next, 661W cells were incubated with either DMSO or different concentrations of small-molecule PKM2 activator for 2 h, lysed and homogenized in RIPA Lysis and Extraction Buffer (Thermo Fisher, Waltham, MA, USA, Cat No. 89900) with protease inhibitors (Complete-Mini, Roche Diagnostics, Indianapolis, IN, USA), and centrifuged at 10,000 rpm for 10 min to remove cellular debris. The supernatant (4–8 μL) was then used to assess the pyruvate kinase activity as described above. The total protein content was determined using the Pierce BCA protein assay kit (Thermo Fisher, Waltham, MA, USA, Cat No. 23225) with the Pierce™ Bovine Serum Albumin Standard Pre-Diluted Set (Thermo Fisher, Waltham, MA, USA, Cat No. 23208) and used to normalize activity as described previously.

[2] = target: T3, pyruvate kinase (PK) activity in rat retina (Rattus norvegicus, UniProt P11980); experiment: PK activity in rat retina after intravitreal injection; assay type: in vivo; conditions: intravitreal injection in rats
T3 construct: the retina from each rat eye was dissected from the RPE-choroid, homogenized, and lysed; from tissue; host or cells: retina of adult Brown-Norway rats
Procedure: The intravitreal injection of medications has revolutionized how numerous retinal diseases are treated and are ever-increasing in ophthalmic clinical practice. Therefore, to assess the ability of these small molecules to activate PK in vivo in the rat retina, we utilized this well-accepted drug delivery method. Two microliters of each respective compound at 850 μM or DMSO were intravitreally injected into rat eyes. The vitreous volume of the rat eye was assumed to be 15 μL, giving a final intravitreal concentration of approximately 100 μM for each compound after injection. Retinas were harvested four hours after injection, lysed, and assayed for PK activity as previously described. The eyes treated with DMSO served as the control upon which PK activation was based.
(§2) Two microliters of each respective compound at 8.5 μM (final vitreous concentration of 1 μM) or DMSO was intravitreally injected into rat eyes, and the PK activity was assessed four hours later.
Animals. Intravitreal injections of various small-molecule PKM2 activators or vehicle (DMSO) were performed in Brown-Norway adult rats. The rats were anesthetized with ketamine (90 mg/mL) and xylazine (10 mg/mL) and their pupils dilated with topical phenylephrine (2.5%) and tropicamide (1%) as described previously. A sclerotomy was created with a 25-gauge microvitreoretinal blade (Walcott Rx Products, Ocean View, NJ, USA) just posterior to the limbus. A blunt 35-gauge cannula was inserted through this sclerotomy into the vitreous cavity to deliver 2 μL of different concentrations of small-molecule activator or DMSO. This injection volume produces minimal reflux with adequate reproducibility. Fifteen microliters of vitreous volume was assumed in rats to calculate the intravitreal concentrations of the compound after injection. As we have previously described, left eyes were treated with small-molecular activator, while right eyes were treated with DMSO, which served as the control upon which pyruvate kinase activation was based. Four hours later, the retina from each rat eye was dissected from the RPE-choroid, homogenized, and lysed in RIPA Lysis and Extraction Buffer with protease inhibitors. The pyruvate kinase (PK) activity assay, as described above, was performed using 4 to 8 microliters of rat retinal lysate, similar to what we and others have previously described. Analogous to the cell culture assays, the total protein of the lysate was used to normalize pyruvate kinase activity.

[3] = Aqueous solubility (Analiza, nitrogen detector); assay type: physicochemical; conditions: aqueous buffer, thermodynamic from solid; PBS, pH 7.4, 24 h, ambient temperature (Table 3)
Procedure: (§3) In brief, each compound was tested at a concentration of 200 μM in PBS, pH 7.4, and room temperature. […] The area of the principal peak in a calibration standard for each compound (200 μM) in organic solvent (60/40 v/v% methanol: water) was compared to the area of the corresponding peak in the PBS sample [42]. Compounds 16–21 underwent solubility testing at Analiza (Cleveland, OH, USA), a contract research organization. Five hundred microliters of PBS, pH 7.4 was added to each amount of compound provided. The samples were vortexed briefly and then placed on a rotary shaker at 200 RPM for 24 h at ambient temperature. Thereafter, the samples were vacuum filtered through a 0.45-micron membrane, and the filtrates were injected into a nitrogen detector for quantification. The nitrogen detector was calibrated using standards, and the filtrates were quantitated based on the calibration curve.

[4] = Aqueous solubility (Eurofins Panlabs, HPLC-UV/Vis); assay type: physicochemical; conditions: aqueous buffer, kinetic from dmso stock; PBS, pH 7.4, 24 h, room temperature (Table 1)
Procedure: as §3

recombinant PKM1 = target: T4, recombinant PKM1 (Homo sapiens, UniProt P14618); experiment: Pyruvate kinase enzyme-coupled assay with recombinant PKM1; assay type: biochemical; conditions: increasing concentrations (Figure 6b)
T4 construct: purchased Sigma SRP0415
Procedure: as §2, §1

[5] = final vitreous concentration 1 μM, 4 h (Figure 6a)

T3 sequence (P11980 1-531 isoform P11980-2): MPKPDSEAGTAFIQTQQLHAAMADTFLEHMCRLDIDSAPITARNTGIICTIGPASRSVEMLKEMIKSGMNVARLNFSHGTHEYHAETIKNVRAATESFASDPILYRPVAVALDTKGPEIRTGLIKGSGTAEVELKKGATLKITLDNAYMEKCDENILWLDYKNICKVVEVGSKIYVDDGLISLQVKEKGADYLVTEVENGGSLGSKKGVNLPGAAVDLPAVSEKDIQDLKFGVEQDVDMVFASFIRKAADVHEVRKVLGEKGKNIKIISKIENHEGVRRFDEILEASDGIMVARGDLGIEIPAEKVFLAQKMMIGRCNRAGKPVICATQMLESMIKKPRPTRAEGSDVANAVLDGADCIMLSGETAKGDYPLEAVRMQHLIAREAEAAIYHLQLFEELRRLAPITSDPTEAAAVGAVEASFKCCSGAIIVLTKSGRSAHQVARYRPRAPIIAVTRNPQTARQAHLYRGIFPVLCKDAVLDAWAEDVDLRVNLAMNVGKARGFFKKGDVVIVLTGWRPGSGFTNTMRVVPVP
T1 sequence (P14618 whole entry): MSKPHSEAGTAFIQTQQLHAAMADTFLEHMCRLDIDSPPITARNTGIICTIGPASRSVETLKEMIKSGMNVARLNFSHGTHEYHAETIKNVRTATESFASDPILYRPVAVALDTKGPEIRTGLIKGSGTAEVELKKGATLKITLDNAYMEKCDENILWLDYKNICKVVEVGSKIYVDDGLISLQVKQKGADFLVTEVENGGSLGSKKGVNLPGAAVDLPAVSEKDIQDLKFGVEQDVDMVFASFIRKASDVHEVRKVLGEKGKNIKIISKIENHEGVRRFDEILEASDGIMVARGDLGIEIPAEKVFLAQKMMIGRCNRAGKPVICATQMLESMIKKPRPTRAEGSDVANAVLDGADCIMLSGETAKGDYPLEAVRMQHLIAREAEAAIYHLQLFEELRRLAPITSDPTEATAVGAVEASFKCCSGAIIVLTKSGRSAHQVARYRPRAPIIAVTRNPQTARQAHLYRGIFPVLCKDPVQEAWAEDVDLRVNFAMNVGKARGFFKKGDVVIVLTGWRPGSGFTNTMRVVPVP
T2 sequence (P52480 whole entry): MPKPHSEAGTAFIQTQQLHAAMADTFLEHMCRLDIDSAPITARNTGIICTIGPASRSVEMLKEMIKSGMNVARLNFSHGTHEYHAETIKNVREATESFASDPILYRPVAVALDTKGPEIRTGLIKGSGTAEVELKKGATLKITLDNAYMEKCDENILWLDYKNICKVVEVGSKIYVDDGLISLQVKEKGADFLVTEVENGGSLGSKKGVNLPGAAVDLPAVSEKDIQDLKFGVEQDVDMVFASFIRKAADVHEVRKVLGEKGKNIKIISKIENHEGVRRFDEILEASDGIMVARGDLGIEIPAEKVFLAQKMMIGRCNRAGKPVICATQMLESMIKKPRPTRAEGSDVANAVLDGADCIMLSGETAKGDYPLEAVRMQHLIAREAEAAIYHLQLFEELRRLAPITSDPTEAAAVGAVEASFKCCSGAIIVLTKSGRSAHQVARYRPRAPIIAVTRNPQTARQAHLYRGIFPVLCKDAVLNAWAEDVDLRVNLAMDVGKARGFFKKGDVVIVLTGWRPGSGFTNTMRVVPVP
T4 sequence (P14618 1-531 isoform P14618-2): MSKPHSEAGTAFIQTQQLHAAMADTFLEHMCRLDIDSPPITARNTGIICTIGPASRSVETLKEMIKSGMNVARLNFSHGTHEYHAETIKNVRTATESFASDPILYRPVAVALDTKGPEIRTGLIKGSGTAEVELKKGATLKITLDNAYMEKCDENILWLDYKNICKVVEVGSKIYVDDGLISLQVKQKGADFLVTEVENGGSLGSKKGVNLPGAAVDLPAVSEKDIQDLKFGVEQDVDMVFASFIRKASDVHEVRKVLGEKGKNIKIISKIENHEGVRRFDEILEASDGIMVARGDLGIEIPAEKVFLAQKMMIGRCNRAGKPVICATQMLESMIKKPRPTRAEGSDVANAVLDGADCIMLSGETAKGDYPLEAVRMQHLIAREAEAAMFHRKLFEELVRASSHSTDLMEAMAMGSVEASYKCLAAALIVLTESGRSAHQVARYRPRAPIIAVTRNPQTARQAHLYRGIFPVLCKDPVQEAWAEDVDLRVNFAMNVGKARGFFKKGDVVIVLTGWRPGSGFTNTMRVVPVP

| Compound | AC50 (human recombinant PKM2) [nM] | Emax (human recombinant PKM2) [%] | AC50 [1] [nM] | Emax [1] [%] | PK activation in rat retina compared with ML-265 [2, 5] | solubility at 24 h [3] [µM] | solubility at 24 h [4] [µM] | PK activity increase, less than that observed with ML-265 [2, 5] | activation of recombinant PKM1 (recombinant PKM1) | AC50 ([2]; increasing concentrations, retina 4 h, read-out: in vivo AC50) [nM] | Emax ([2]; rat, increasing concentrations, retina 4 h, normalized to DMSO, read-out: in vivo PK activity (maximum activation)) [%] |
| --- | --- | --- | --- | --- | --- | --- | --- | --- | --- | --- | --- |
| Cn1c2cc(CN3CCNCC3)c(F)cc2c2cnn(Cc3ccccc3F)c(=O)c21 [Compound 21] | 66 ± 10 | 339 ± 16 | 72 ± 24 | 299 ± 18 | approximately a third of the retinal PK activation as that achieved with ML-265 | 334 (≈ 141 µg/mL) | – | – | – | – | – |
| Cn1c2cc([S+](C)[O-])ccc2c2cnn(Cc3ccccc3)c(=O)c21 (stereo not shown) [Compound 3] | 47 ± 10 | 279 ± 16 | 104 ± 32 | 280 ± 17 | – | – | 12.1 (≈ 4.25 µg/mL) | – | – | – | – |
| Cn1c2cc(CNCCO)c(F)cc2c2cnn(Cc3ccccc3F)c(=O)c21 [Compound 20] | 62 ± 11 | 239 ± 12 | 93 ± 29 | 288 ± 17 | – | 462 (≈ 184 µg/mL) | – | – | – | – | – |
| Cc1cccc(Cn2ncc3c4cc(F)c(CN(C)C)cc4n(C)c3c2=O)n1 [Compound 19] | 83 ± 9 | 266 ± 9 | 222 ± 81 | 297 ± 22 | – | – | – | 20–30% | did not activate | – | – |
| Cc1cccc(Cn2ncc3c4cc(F)c(CN5CCCC5)cc4n(C)c3c2=O)n1 [Compound 18] | 64 ± 4 | 245 ± 5 | 106 ± 27 | 257 ± 12 | – | 858 (≈ 348 µg/mL) | – | 20–30% | – | – | – |
| Cn1c2cc([S+](C)[O-])sc2c2cnn(Cc3cccc(N)c3)c(=O)c21 (stereo not shown) [ML-265, reference compound] | – | 292 ± 21 | 108 ± 32 | 370 ± 21 | – | – | – | – | – | 866 ± 176 | 202 ± 8 |
| Cc1ccc2c3cnn(Cc4ccccc4)c(=O)c3n(C)c2c1 [Compound 1] | 23 ± 4 | 224 ± 9 | 175 ± 64 | 219 ± 16 | – | – | < 0.01 | – | – | – | – |
| Cc1ccc2c3cnn(Cc4cccc(N)c4)c(=O)c3n(C)c2c1 [Compound 5] | 61 ± 12 | 249 ± 14 | 132 ± 47 | 236 ± 16 | – | – | 12.7 (≈ 4.04 µg/mL) | – | – | – | – |
| CSc1ccc2c3cnn(Cc4cccc(N)c4)c(=O)c3n(C)c2c1 [Compound 4] | 48 ± 10 | 216 ± 12 | 66 ± 19 | 256 ± 13 | – | – | < 0.01 | – | – | – | – |
| Cc1cccc(Cn2ncc3c4cc(F)c(CNCCO)cc4n(C)c3c2=O)n1 [Compound 17] | 58 ± 5 | 213 ± 6 | 1620 ± 428 | 430 ± 33 | – | 1120 (≈ 442 µg/mL) | – | – | – | – | – |
| Cc1cccc(Cn2ncc3c4cc(F)c(CN5CCOCC5)cc4n(C)c3c2=O)n1 [Compound 16] | 65 ± 8 | 224 ± 8 | 162 ± 46 | 268 ± 15 | – | 397 (≈ 167 µg/mL) | – | – | – | – | – |
